Values quoted from earlier work, collected in US20030008851A1, “Acne treatment including dual-package system” (priority 2001, published 2003).

Key:
[1] = not given; remark: listed apart in the source

SMILES	volume of alcohol dissolving 1 gram (1 gram)	pH of the solution produced ([1]; 1 gram in about 460 ml of water at room temperature)	volume of water dissolving 1 gram ([1]; 1 gram, water, room temperature)	solubility in water (in words) ([1]; water)	solubility in water ([1]; water, room temperature)	solubility in alcohol (in words)
O=C(O)c1ccccc1O [Salicylic acid]	about 2.7 ml	2.4	about 460 ml	sparingly soluble	about 0.2 % by weight	
O=C(OOC(=O)c1ccccc1)c1ccccc1 [Benzoyl peroxide]				sparingly soluble		sparingly soluble
